Counter-ions that a name gives are not always drawn. One block for each compound: values may come before it.
Assays:
[1] = target: T1, CYP11B1 (steroid 11-hydroxylase) (Homo sapiens, UniProt P15538); experiment: Inhibition of cortisol secretion in NCI-H295R cells; format: cell-based; conditions: human adrenocortical carcinoma NCI-H295R cells, 24 hours with cell stimulant
T1 construct: the NCI-H295R cells have CYP11B2 (aldosterone synthase) and CYP11B1 (steroid 11-hydroxylase); host or cells: NCI-H295R
T1 sequence (P15538 25-503): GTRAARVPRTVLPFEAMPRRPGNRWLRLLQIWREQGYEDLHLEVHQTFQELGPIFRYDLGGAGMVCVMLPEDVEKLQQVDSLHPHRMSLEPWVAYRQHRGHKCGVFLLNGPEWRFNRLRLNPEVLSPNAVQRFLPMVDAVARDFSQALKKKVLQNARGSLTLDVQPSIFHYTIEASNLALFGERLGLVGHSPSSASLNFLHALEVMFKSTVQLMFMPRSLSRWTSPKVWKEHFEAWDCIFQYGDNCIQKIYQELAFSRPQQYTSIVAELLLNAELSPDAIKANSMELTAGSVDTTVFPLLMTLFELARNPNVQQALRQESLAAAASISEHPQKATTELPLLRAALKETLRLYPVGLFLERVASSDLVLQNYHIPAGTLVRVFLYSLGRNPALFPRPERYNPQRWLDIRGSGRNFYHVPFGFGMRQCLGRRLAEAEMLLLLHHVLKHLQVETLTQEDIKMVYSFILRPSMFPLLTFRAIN
Source text: (§1) The activities of a compound according to the present invention can be assessed by the following in vitro method well-described in the art.
(§2) In particular, the inhibition of aldosterone and cortisol secretion in vitro can be determined by the following assay.
(§3) The cell line NCI-H295R was originally isolated from an adrenocortical carcinoma and has been characterized in the literature through the stimulable secretion of steroid hormones and the presence of the enzymes essential for steroidogenesis. The cells show the physiological property of zonally undifferentiated human foetal adrenocortical cells which, however, have the capacity to produce the steroid hormones which are formed in the three phenotypically distinguishable zones in the adult adrenal cortex. Thus, the NCI-H295R cells have CYP11B2 (aldosterone synthase) and CYP11B1 (steroid 11-hydroxylase).
(§4) The human adrenocortical carcinoma NCI-H295R cell line is obtained from American Type Culture Collection (Manassas, Va.). Insulin/transferrin/selenium (ITS)-A supplement (100×), DMEM/F-12, antibiotic/antimycotic (100×), and fetal calf serum (FCS) are purchased from Invitrogen (Carlsbad, Calif.). Anti-mouse PVT scintillation proximity assay (SPA) beads and NBS 96-well plates are obtained from Amersham (Piscataway, N.J.) and Corning (Acton, Mass.), respectively. Clear bottom 96-well flat bottom plates are purchased from Costar (Corning, N.Y.). Aldosterone and angiotensin (Ang II) are purchased from Sigma (St. Louis, Mo.). D[1,2,6,7-3H(N)]aldosterone and [1,2,6,7-3H(N)]cortisol are acquired from PerkinElmer (Boston, Mass.). Nu-serum is a product of BD Biosciences (Franklin Lakes, N.J.).
(§5) For in vitro measurement of aldosterone and cortisol activity, human adrenocortical carcinoma NCI-H295R cells are seeded in NBS 96-well plates at a density of 25,000 cells/well in 100 μL of a growth medium containing DMEM/F12 supplemented with 10% FCS, 2.5% Nu-serum, 1 μg ITS/ml, and 1× antibiotic/antimycotic. The medium is changed after culturing for 3 days at 37° C. under an atmosphere of 5% CO2/95% air. On the following day, cells are rinsed with 100 μL of DMEM/F12 and incubated in quadruplicate wells at 37° C. for 24 hours with 100 μL of treatment medium containing a cell stimulant and a compound at different concentrations. […] Cell stimulants which can be used are angiotensin-II (1 micromolar), potassium ions (16 millimolar), forskolin (10 micromolar) or a combination of two stimulants. At the end of incubation, the excretion of aldosterone and cortisol into the culture medium can be detected and quantified by commercially available, specific monoclonal antibodies in radioimmunoassays in accordance with the manufacturer's instructions.
(§6) Measurement of aldosterone can also be performed using a 96-well plate format. Each test sample is incubated with 0.02 μCi of D[1,2,6,7-3H(N)]aldosterone and 0.3 μg of anti-aldosterone antibody in phosphate-buffered saline (PBS) containing 0.1% Triton X-100, 0.1% bovine serum albumin, and 12% glycerol in a total volume of 200 μL at room temperature for 1 hour. Anti-mouse PVT SPA beads (50 μL) are then added to each well and incubated overnight at room temperature prior to counting in a Microbeta plate counter. The amount of aldosterone in each sample is calculated by comparing with a standard curve generated using known quantities of the hormone. Measurement of cortisol can be performed in a manner similar to that of aldosterone, except that [1,2,6,7-3H(N)]cortisol is used.
(§7) Inhibition of the release of a steroid can be used as a measure of the respective enzyme inhibition by the added test compounds. The dose-dependent inhibition of enzymatic activity by a compound is calculated by means of an inhibition plot which is characterized by an IC50. […] The inhibition plot is calculated by fitting a 4-parameter logistic function to the raw data points using the least squares method.

[2] = target: T2, CYP11B2 (aldosterone synthase) (Homo sapiens, UniProt P19099); experiment: Inhibition of aldosterone secretion in NCI-H295R cells; format: cell-based; conditions: human adrenocortical carcinoma NCI-H295R cells, 24 hours with cell stimulant
T2 construct: the NCI-H295R cells have CYP11B2 (aldosterone synthase) and CYP11B1 (steroid 11-hydroxylase); host or cells: NCI-H295R
T2 sequence (P19099 25-503): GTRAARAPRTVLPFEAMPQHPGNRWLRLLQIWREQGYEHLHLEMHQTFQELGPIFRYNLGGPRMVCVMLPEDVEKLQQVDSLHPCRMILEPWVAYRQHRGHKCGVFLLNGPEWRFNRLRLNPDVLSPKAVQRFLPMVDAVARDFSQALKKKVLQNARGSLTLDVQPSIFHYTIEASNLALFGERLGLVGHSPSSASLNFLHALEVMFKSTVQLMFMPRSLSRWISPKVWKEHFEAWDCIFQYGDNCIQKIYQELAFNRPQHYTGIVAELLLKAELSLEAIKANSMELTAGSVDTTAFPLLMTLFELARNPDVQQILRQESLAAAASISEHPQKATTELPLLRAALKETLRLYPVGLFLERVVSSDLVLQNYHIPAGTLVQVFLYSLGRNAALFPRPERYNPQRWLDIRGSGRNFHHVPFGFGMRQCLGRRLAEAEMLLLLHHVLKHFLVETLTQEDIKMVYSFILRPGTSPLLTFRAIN
Source text: as §1, §2, §3, §4, §5, §6, §7

SMILES: COCCOC(=O)NCc1cncc(-c2c(C#N)c3ccc(Cl)cc3n2C)c1 [Example 192]
IC50 [1]: 20 nM
IC50 [2]: 4 nM

SMILES: COCCc1cncc(-c2c(C#N)c3ccccc3n2C)c1 [Example 217, 2-[5-(2-Methoxy-ethyl)-pyridin-3-yl]-1-methyl-1H-indole-3-carbonitrile]
IC50 [1]: 22 nM
IC50 [2]: 4 nM

SMILES: Cc1c(-c2cccnc2)[nH]c2ccc(C#N)cc12 [Example 6, 3-Methyl-2-pyridin-3-yl-1H-indole-5-carbonitrile]
IC50 [1]: 7 nM
IC50 [2]: 1 nM

SMILES: Cn1c(-c2cnccc2CO)cc2ccccc21 [Example 106, [3-(1-Methyl-1H-indol-2-yl)-pyridin-4-yl]-methanol]
IC50 [1]: 530 nM
IC50 [2]: 85 nM

SMILES: CC(C)S(=O)(=O)NCc1cncc(-c2c(C#N)c3ccc(Cl)cc3n2C)c1 [Example 186, Propane-2-sulfonic acid [5-(6-chloro-3-cyano-1-methyl-1H-indol-2-yl)-pyridin-3-ylmethyl]amide]
IC50 [1]: 390 nM
IC50 [2]: 21 nM

SMILES: CCS(=O)(=O)NCc1cncc(-c2c(C)c3ccccc3n2C)c1 [Example 237, N-((5-(1,3-Dimethyl-1H-indol-2-yl)pyridin-3-yl)methyl)ethanesulfonamide]
IC50 [1]: 1610 nM
IC50 [2]: 5 nM

SMILES: CCS(=O)(=O)Nc1cncc(-c2c(COC)c3ccc(Cl)cc3n2C)c1 [Example 238, Ethanesulfonic acid [5-(1-methyl-3-methoxymethyl-6-chloro-1H-indol-2-yl)-pyridin-3-yl)-amide]
IC50 [1]: > 1000 nM
IC50 [2]: 44 nM

SMILES: CCc1c(-c2cncc(NS(=O)(=O)CC)c2)n(C)c2ccccc12 [Example 229, Ethanesulfonic acid [5-(1-methyl-3-ethyl-1H-indol-2-yl)-pyridin-3-yl]-amide]
IC50 [1]: 125 nM
IC50 [2]: 5 nM

SMILES: COc1ccncc1-c1cc2cc(C#N)ccc2[nH]1 [Example 90, 2-(4-Methoxy-pyridin-3-yl)-1H-indole-5-carbonitrile]
IC50 [1]: 400 nM
IC50 [2]: 40 nM

SMILES: CC(C)NC(=O)NCc1cncc(-c2c(C#N)c3ccc(Cl)cc3n2C)c1 [Example 196, 1-[5-(6-Chloro-3-cyano-1-methyl-1H-indol-2-yl)-pyridin-3-ylmethyl]-3-isopropyl-urea]
IC50 [1]: 19 nM
IC50 [2]: 3 nM

SMILES: Cn1c(-c2cncc(Cl)c2)c(C#N)c2ccccc21 [Example 123, 2-(5-Chloro-pyridin-3-yl)-1-methyl-1H-indole-3-carbonitrile]
IC50 [1]: 650 nM
IC50 [2]: 78 nM

SMILES: Cc1c(-c2cccnc2)n(Cc2cccc(C#N)c2)c2cc(F)ccc12 [Example 15, 3-(6-Fluoro-3-methyl-2-pyridin-3-yl-1H-indol-1-ylmethyl)-benzonitrile hydrochloride]
IC50 [1]: 447 nM
IC50 [2]: 27 nM

Second part, the compound after the results:

IC50 [1]: 345 nM
IC50 [2]: 36 nM
SMILES: CCS(=O)(=O)Nc1cncc(-c2cc3ccccc3n2C)c1 [Example 226, Ethanesulfonic acid [5-(1-methyl-1H-indol-2-yl)-pyridin-3-yl]-amide]

IC50 [1]: > 1000 nM
IC50 [2]: 105 nM
SMILES: CN(C)S(=O)(=O)Nc1cncc(-c2cc3ccccc3n2C)c1 [Example 228]

IC50 [1]: 3 nM
IC50 [2]: 2 nM
SMILES: Cn1c(-c2cncc(CN3CCN(S(C)(=O)=O)CC3)c2)c(C#N)c2ccc(Cl)cc21 [Example 180, 6-Chloro-2-[5-(4-methanesulfonyl-piperazin-1-ylmethyl)-pyridin-3-yl]-1-methyl-1H-indole-3-carbonitrile]

IC50 [1]: 37 nM
IC50 [2]: 2 nM
SMILES: COc1cncc(-c2cc3ccccc3n2C)c1 [Example 101, 2-(5-Methoxy-pyridin-3-yl)-1-methyl-1H-indole]

IC50 [1]: 1100 nM
IC50 [2]: 21 nM
SMILES: CCS(=O)(=O)Nc1cncc(-c2c(C)c3ccccc3n2C)c1 [Example 236, Ethanesulfonic acid [5-(1,3-dimethyl-1H-indol-2-yl)-pyridin-3-yl)-amide]

IC50 [1]: 51 nM
IC50 [2]: 2 nM
SMILES: CCS(=O)(=O)N(C)c1cncc(-c2cc3ccccc3n2C)c1 [Example 231, Ethanesulfonic acid methyl-[5-(1-methyl-1H-indol-2-yl)-pyridin-3-yl]-amide]

IC50 [1]: 377 nM
IC50 [2]: 56 nM
SMILES: CC(C)C(=O)C1(CNc2cncc(-c3cc4ccccc4n3C)c2)CCC1 [Example 214, 2-Methyl-1-(1-{[5-(1-methyl-1H-indol-2-yl)-pyridin-3-ylamino]-methyl}-cyclobutyl)-propan-1-one]

IC50 [1]: 662 nM
IC50 [2]: 14 nM
SMILES: Cc1c(-c2cccnc2)n(Cc2ccc(C(=O)O)cc2)c2cccc(F)c12 [Example 33, 4-(4-Fluoro-3-methyl-2-pyridin-3-yl-1H-indol-1-ylmethyl)-benzoic acid]

IC50 [1]: > 1000 nM
IC50 [2]: 23 nM
SMILES: CCNS(=O)(=O)c1cncc(-c2cc3ccccc3n2C)c1 [Example 242, N-ethyl-5-(1-methyl-1H-indol-2-yl)pyridine-3-sulfonamide]

IC50 [1]: 240 nM
IC50 [2]: 10 nM
SMILES: Cc1c(-c2cccnc2)n(COC(=O)C(C)(C)C)c2ccc(Cl)cc12 [Example 65, 2,2-Dimethyl-propionic acid 5-chloro-3-methyl-2-pyridin-3-yl-indol-1-ylmethyl ester]

IC50 [1]: 220 nM
IC50 [2]: 9 nM
SMILES: Cn1c(-c2cnccc2Cl)cc2ccccc21 [Example 107, 2-(4-Chloro-pyridin-3-yl)-1-methyl-1H-indole]

IC50 [1]: 788 nM
IC50 [2]: 23 nM
SMILES: Cn1c(-c2cncc(CNS(=O)(=O)CC(F)(F)F)c2)cc2ccc(Cl)cc21 [Example 209, 2,2,2-Trifluoro-ethanesulfonic acid [5-(6-chloro-1-methyl-1H-indol-2-yl)-pyridin-3-ylmethyl]-amide]

IC50 [1]: 213 nM
IC50 [2]: 2 nM
SMILES: CCS(=O)(=O)NCc1cncc(-c2cc3ccc(Cl)cc3n2C)c1 [Example 206, N-[5-(6-Chloro-1-methyl-1H-indol-2-yl)-pyridin-3-ylmethyl]-ethanesulfonamide]

IC50 [1]: 600 nM
IC50 [2]: 30 nM
SMILES: N#Cc1cccc(C(=O)n2c(-c3cccnc3)cc3cc(C#N)ccc32)c1 [Example 42, 1-(3-Cyano-benzoyl)-2-pyridin-3-yl-1H-indole-5-carbonitrile]

Reference: patent US8791141B2, “Organic compounds” (Novartis AG, priority 2008, dated 2014)
